Patent US8063048B2, “Acetylenyl-pyrazolo-pyrimidine derivatives” (Hoffmann-La Roche Inc., priority 2005, dated 2011)

In the case of `N#Cc1cc(C#Cc2cnn3c(C(F)F)cc(-c4ccc(C(F)(F)F)cc4)nc23)cnc1N` [Example 218, 2-Amino-5-[7-difluoromethyl-5-(4-trifluoromethyl-phenyl)-pyrazolo[1,5-a]pyrimidin-3-ylethynyl]-nicotinonitrile], the melting point is reported as 255 °C.

In the case of `CC(C)(CO)NS(=O)(=O)c1cccc(C#Cc2cnn3c(C(F)F)cc(-c4ccc(C(F)(F)F)cc4)nc23)c1` [Example 32, 3-[7-Difluoromethyl-5-(4-trifluoromethyl-phenyl)-pyrazolo[1,5-a]pyrimidin-3-ylethynyl]-N-(2-hydroxy-1,1-dimethyl-ethyl)-benzenesulfonamide], the melting point is reported as 161 to 162 °C.

`Nc1ccc(C#Cc2cnc3c(C(F)(F)F)cc(-c4ccc(C(F)(F)F)cc4)nn23)cn1` [Example 232, 5-[8-Trifluoromethyl-6-(4-trifluoromethyl-phenyl)-imidazo[1,2-b]pyridazin-3-ylethynyl]-pyridin-2-ylamine] showed a melting point of 267 °C.

For `CC(CO)(CO)NS(=O)(=O)c1cncc(C#Cc2cnn3c(C4CC4)cc(-c4ccc(C(F)(F)F)cc4)nc23)c1` [Example 80, 5-[7-Cyclopropyl-5-(4-trifluoromethyl-phenyl)-pyrazolo[1,5-a]pyrimidin-3-ylethynyl]-pyridine-3-sulfonic acid (2-hydroxy-1-hydroxymethyl-1-methyl-ethyl)-amide], the melting point was 190 to 191 °C.

Work on `NS(=O)(=O)c1cc(C#Cc2cnn3c(C(F)(F)F)cc(-c4cccc(C(F)(F)F)c4)nc23)c(F)cc1F` [Example 116, 2,4-Difluoro-5-[7-trifluoromethyl-5-(3-trifluoromethyl-phenyl)-pyrazolo[1,5-a]pyrimidin-3-ylethynyl]-benzenesulfonamide] yielded a melting point of 264 °C.

For `FC(F)(F)c1ccc(-c2cc(C(F)(F)F)n3ncc(C#Cc4ccncc4)c3n2)cc1` [Example 7, 3-Pyridin-4-ylethynyl-7-trifluoromethyl-5-(4-trifluoromethyl-phenyl)-pyrazolo[1,5-a]pyrimidine], the melting point was 252 to 256 °C.

Work on `NS(=O)(=O)c1cccc(C#Cc2cnn3c(C(F)(F)F)cc(-c4ccc(Cl)cc4)nc23)c1` [Example 99, 3-[5-(4-Chloro-phenyl)-7-trifluoromethyl-pyrazolo[1,5-a]pyrimidin-3-ylethynyl]-benzenesulfonamide] yielded a melting point of 290 to 293 °C.

For `O=S(=O)(c1ccc(C#Cc2cnn3c(C(F)F)cc(-c4ccc(C(F)(F)F)cc4)nc23)cc1)N1CCOCC1` [Example 137, 7-Difluoromethyl-3-[4-(morpholine-4-sulfonyl)-phenylethynyl]-5-(4-trifluoromethyl-phenyl)-pyrazolo[1,5-a]pyrimidine], the melting point was 227 to 228 °C.

In the case of `Nc1ccc(C#Cc2cnn3c(C(F)F)cc(-c4cccc(C(F)(F)F)c4)nc23)cn1` [Example 254, 5-[7-Difluoromethyl-5-(3-trifluoromethyl-phenyl)-pyrazolo[1,5-a]pyrimidin-3-ylethynyl]-pyridin-2-ylamine], the melting point is reported as 164 °C.

In the case of `Cc1cc(C#Cc2cnn3c(C(F)F)cc(-c4ccc(C(F)(F)F)cc4)nc23)cnc1N` [Example 142, 5-[7-Difluoromethyl-5-(4-trifluoromethyl-phenyl)-pyrazolo[1,5-a]pyrimidin-3-ylethynyl]-3-methyl-pyridin-2-ylamine], the melting point is reported as 194 to 195 °C.

For `Cc1cc(-c2ccc(C(F)(F)F)cc2)cn2c(C#Cc3cncc(S(=O)(=O)NC(C)(C)CO)c3)cnc12` [Example 228, 5-[8-Methyl-6-(4-trifluoromethyl-phenyl)-imidazo[1,2-a]pyridin-3-ylethynyl]-pyridine-3-sulfonic acid (2-hydroxy-1,1-dimethyl-ethyl)-amide], the melting point was 189 °C.

`NS(=O)(=O)c1ccc(C#Cc2cnc3c(C(F)(F)F)cc(-c4ccc(C(F)(F)F)cc4)cn23)cc1` [Example 181, 4-[8-Trifluoromethyl-6-(4-trifluoromethyl-phenyl)-imidazo[1,2-a]pyridin-3-ylethynyl]-benzenesulfonamide] showed a melting point of 278 to 280 °C.

`NS(=O)(=O)c1ccc(C#Cc2ncn3c(C(F)F)cc(-c4ccc(C(F)(F)F)cc4)nc23)s1` [Example 275, 5-[4-Difluoromethyl-2-(4-trifluoromethyl-phenyl)-imidazo[1,5-a]pyrimidin-8-ylethynyl]-thiophene-2-sulfonic acid amide] showed a melting point of 223 °C.

In the case of `Cc1cc(-c2cc(C(F)(F)F)n3ncc(C#Cc4ccc(N)nc4)c3n2)ccc1C(F)(F)F` [Example 289, 5-[5-(3-Methyl-4-trifluoromethyl-phenyl)-7-trifluoromethyl-pyrazolo[1,5-a]pyrimidin-3-ylethynyl]-pyridin-2-ylamine], the melting point is reported as 201 °C.

`COc1cncc(C#Cc2cnn3c(C(F)(F)F)cc(-c4ccc(C(F)(F)F)cc4)nc23)c1` [Example 57, 3-(5-Methoxy-pyridin-3-ylethynyl)-7-trifluoromethyl-5-(4-trifluoromethyl-phenyl)-pyrazolo[1,5-a]pyrimidine] showed a melting point of 232 to 234 °C.

`CN1CCN(S(=O)(=O)c2ccc(C#Cc3cnn4c(C(F)F)cc(-c5cccc(C(F)(F)F)c5)nc34)s2)CC1` [Example 248, 7-Difluoromethyl-3-[5-(4-methyl-piperazine-1-sulfonyl)-thiophen-2-ylethynyl]-5-(3-trifluoromethyl-phenyl)-pyrazolo[1,5-a]pyrimidine] showed a melting point of 214 °C.

Work on `CN(C)S(=O)(=O)c1ccc(C#Cc2cnn3c(C(F)F)cc(-c4ccc(C(F)(F)F)cc4)nc23)cc1` [Example 136, 4-[7-Difluoromethyl-5-(4-trifluoromethyl-phenyl)-pyrazolo[1,5-a]pyrimidin-3-ylethynyl]-N,N-dimethyl-benzenesulfonamide] yielded a melting point of 211 to 212 °C.

`Cc1cc(-c2ccc(Cl)cc2)cn2c(C#Cc3ccc(S(N)(=O)=O)s3)cnc12` [Example 211, 5-[6-(4-Chloro-phenyl)-8-methyl-imidazo[1,2-a]pyridin-3-ylethynyl]-thiophene-2-sulfonic acid amide] showed a melting point of 265 to 266 °C.

Work on `NS(=O)(=O)c1cc(C#Cc2cnn3c(C(F)F)cc(-c4ccc(C(F)(F)F)cc4)nc23)c(F)cc1F` [Example 31, 5-[7-Difluoromethyl-5-(4-trifluoromethyl-phenyl)-pyrazolo[1,5-a]pyrimidin-3-ylethynyl]-2,4-difluoro-benzenesulfonamide] yielded a melting point of 256 to 258 °C.
